The values that follow come from US4900748A (priority 1988, dated 1990).

Where two headings read alike, the source gives them in different places.

Assay [1] concerns the target Butyrylcholinesterase (Plasma) (Homo sapiens, UniProt P06276). In words: biochemical.
In assay [2] the target is Butyrylcholinesterase (Cortex) (Homo sapiens, UniProt P06276). In words: biochemical.
For assay [3], the target named is Acetylcholinesterase (Eel) (Electrophorus electricus, UniProt O42275). In words: biochemical.
The target of assay [4] is Acetylcholinesterase (RBC) (Homo sapiens, UniProt P22303). In words: biochemical.
The target of assay [5] is Acetylcholinesterase (Caudate) (Homo sapiens, UniProt P22303). In words: biochemical.
The test system of another assay is neuromuscular AChR. Conditions: cited from earlier work.
For assay [6], the target named is Acetylcholinesterase (Cortex) (Homo sapiens, UniProt P22303). In words: biochemical.
Assay [7] has as its system acetyl- and butyryl-cholinesterase. It is filed as biochemical.
The subject of the next assay is acetylcholinesterase. Type of assay: biochemical. The settings on record: for IC50: read-out: IC50, antiacetylcholinesterase (approximate).
The test system of a further assay is nicotinic AChR. The settings on record: cited from earlier work.
In the next assay the test system is butyrylcholinesterase. Type of assay: biochemical.
Where [8] appears, read: read-out: IC50 Butyrylcholinesterase Plasma.
Setting [9] is: read-out: IC50 Butyrylcholinesterase Cortex.
Setting [10] is: read-out: IC50 Acetylcholinesterase Eel.
The mark [11] stands for this setting: read-out: IC50 Acetylcholinesterase Cortex.
Where [12] appears, read: read-out: IC50 Acetylcholinesterase RBC.
Where [13] appears, read: read-out: IC50 Acetylcholinesterase Caudate.

Chain of Butyrylcholinesterase (Cortex) (P06276 29-602): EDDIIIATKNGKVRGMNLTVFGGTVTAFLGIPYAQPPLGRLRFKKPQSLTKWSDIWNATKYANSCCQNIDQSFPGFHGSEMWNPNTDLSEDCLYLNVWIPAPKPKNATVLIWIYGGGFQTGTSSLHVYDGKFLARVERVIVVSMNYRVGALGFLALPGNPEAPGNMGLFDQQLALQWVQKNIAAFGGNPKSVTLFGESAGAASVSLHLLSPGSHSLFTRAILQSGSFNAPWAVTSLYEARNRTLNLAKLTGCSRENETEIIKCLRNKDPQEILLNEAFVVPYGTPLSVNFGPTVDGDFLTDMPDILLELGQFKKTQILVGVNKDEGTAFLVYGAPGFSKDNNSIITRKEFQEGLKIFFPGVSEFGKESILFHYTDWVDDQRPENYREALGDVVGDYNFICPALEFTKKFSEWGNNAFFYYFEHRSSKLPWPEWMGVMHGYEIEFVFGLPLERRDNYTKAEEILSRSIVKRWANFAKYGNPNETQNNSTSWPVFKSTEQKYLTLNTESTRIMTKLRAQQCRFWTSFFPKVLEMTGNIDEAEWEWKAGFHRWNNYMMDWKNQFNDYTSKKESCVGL
Chain of Butyrylcholinesterase (Plasma) (P06276 29-602): as above
Chain of Acetylcholinesterase (Caudate) (P22303 32-614): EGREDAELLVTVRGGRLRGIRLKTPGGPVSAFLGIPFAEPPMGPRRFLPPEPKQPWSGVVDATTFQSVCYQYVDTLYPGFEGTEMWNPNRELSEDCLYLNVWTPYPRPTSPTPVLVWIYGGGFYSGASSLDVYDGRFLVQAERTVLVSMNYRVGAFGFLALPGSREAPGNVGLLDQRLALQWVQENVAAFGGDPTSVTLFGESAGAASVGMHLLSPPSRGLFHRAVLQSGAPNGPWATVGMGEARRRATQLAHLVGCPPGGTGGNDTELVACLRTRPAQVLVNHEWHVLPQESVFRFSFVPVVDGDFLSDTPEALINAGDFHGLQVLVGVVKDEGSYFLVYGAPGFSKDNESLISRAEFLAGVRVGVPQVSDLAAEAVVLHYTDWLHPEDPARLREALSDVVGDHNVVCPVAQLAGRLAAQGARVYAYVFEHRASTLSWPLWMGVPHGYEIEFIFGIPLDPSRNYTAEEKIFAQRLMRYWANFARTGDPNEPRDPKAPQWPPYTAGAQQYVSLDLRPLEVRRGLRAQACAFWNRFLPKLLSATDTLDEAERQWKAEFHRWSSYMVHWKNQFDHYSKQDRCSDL
Chain of Acetylcholinesterase (Cortex) (P22303 32-614): as above
Chain of Acetylcholinesterase (Eel) (O42275 24-633): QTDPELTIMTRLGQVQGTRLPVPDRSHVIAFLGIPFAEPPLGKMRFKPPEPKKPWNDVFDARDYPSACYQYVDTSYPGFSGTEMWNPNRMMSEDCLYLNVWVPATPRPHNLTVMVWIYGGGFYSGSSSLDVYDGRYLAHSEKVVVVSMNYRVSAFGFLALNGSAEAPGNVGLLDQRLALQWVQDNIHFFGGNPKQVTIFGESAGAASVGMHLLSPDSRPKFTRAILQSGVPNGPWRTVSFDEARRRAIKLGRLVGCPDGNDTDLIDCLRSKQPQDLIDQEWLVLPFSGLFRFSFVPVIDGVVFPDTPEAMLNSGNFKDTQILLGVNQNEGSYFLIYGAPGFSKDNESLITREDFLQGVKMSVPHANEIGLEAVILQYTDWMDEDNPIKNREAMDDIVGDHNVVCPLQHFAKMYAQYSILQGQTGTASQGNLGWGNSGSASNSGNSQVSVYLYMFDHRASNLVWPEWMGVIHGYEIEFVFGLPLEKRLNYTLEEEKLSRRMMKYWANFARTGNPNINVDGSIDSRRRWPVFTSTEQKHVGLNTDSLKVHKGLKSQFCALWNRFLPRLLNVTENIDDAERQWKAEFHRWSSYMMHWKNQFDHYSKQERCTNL
Chain of Acetylcholinesterase (RBC) (P22303-2 with tags, fused parts or gaps limits assumed): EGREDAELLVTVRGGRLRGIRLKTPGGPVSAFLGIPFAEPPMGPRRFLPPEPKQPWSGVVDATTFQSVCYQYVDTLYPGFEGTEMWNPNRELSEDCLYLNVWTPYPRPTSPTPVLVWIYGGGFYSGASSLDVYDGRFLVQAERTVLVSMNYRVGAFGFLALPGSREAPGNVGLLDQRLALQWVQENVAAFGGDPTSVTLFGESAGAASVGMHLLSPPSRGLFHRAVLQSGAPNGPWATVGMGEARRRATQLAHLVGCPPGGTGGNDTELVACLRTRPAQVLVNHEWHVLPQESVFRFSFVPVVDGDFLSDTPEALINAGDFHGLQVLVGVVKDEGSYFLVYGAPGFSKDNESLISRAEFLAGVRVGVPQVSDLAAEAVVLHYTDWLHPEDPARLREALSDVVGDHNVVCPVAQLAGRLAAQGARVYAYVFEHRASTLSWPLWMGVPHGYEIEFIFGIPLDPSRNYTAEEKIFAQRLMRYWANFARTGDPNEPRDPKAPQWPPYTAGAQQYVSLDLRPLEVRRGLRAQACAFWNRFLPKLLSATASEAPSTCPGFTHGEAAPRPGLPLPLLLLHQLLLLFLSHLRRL

For orientation: IC50 means the concentration at which inhibition is half-maximal. Turning to `CCCCCCCCNC(=O)Oc1ccc2c(c1)[C@]1(C)CCN(C)[C@@H]1N2C` [YU-71, eseroline octylcarbamate], the IC50 in assay [1] is 0.0036 ± 0.001 µM; in [2], 0.0087 ± 0.0037 µM.

For Ethoprop [reference compound], the IC50 came to 0.3 µM in assay [1] (setting [8]), 0.21 µM in assay [2] (setting [9]) and 120 µM in assay [3] (setting [10]).

Take `CN1CC[C@]2(C)c3cc(O)ccc3N(C)[C@H]12` [(+)eseroline, reference compound]: the IC50 in assay [1], in assay [4], in assay [2], in assay [3] and in [5] was > 10 µM in each case.

Turning to `CNC(=O)Oc1ccc2c(c1)[C@]1(C)CCN(C)[C@@H]1N2C` [(-) physo, (-)-physostigmine], the “properties at the neuromuscular AChR” value in the assay on neuromuscular AChR is recorded as “blocking as well as agonist properties”.

With `CN1CC[C@@]2(C)c3cc(O)ccc3N(C)[C@@H]12` [(-)eseroline, (-)-eseroline, reference compound], the IC50 in assay [1], in assay [4], in [2], in assay [3] and in assay [5] was > 10 µM in each case.

For the molecule `CN1CC[C@@]2(C)c3cc(O)ccc3N(C)[C@@H]12` (relative stereo) [(+/-)eseroline, reference compound], the IC50 in [1], in [4], in [2], in assay [3] and in assay [5] was > 10 µM each time.

Regarding `CN1CC[C@@]2(C)c3cc(OC(=O)NCc4ccccc4)ccc3N(C)[C@@H]12` [YU-69-1, eseroline benzylcarbamate], the IC50 in assay [1] was determined as 0.0027 ± 0.0016 µM; in assay [6], 0.024 ± 0.005 µM; in [4], 0.026 ± 0.008 µM; in assay [2], 0.02 ± 0.011 µM; in [3], 0.46 ± 0.08 µM; in assay [5], 0.027 ± 0.01 µM.

In the case of `CN1CC[C@@]2(C)c3cc(OC(=O)Nc4ccc(Cl)cc4)ccc3N(C)[C@@H]12` [YU-116, chlorophenyl carbamoyleseroline], the IC50 is 4 ± 0.052 µM in [1]; 0.417 ± 0.088 µM in [6]; 0.654 ± 0.032 µM in assay [4]; 4.46 ± 1.29 µM in [2]; ~0.5 µM at acetylcholinesterase; 1.8 ± 0.085 µM in assay [3]. The same molecule registered an IC50 in assay [5] of 0.448 ± 0.029 µM. The “specificity acetyl- versus butyryl-cholinesterase” value in assay [7] is “relatively specific for acetyl- rather than butyryl-cholinesterase”. In addition, the “antiacetylcholinesterase potency in words” value with acetylcholinesterase was “much less against acetylcholinesterase”. In addition, in the assay on acetylcholinesterase, the “reduction of antiacetylcholinesterase potency” value is “approximately 10 fold”.

As for `c1ccc(C2(N3CCCCC3)CCCCC2)cc1` [phencyclidine], the “modification of AChR activation” value with nicotinic AChR was “modify noncompetitively the activation of the AChR”.

As for `COc1ccc(NC(=O)Oc2ccc3c(c2)[C@]2(C)CCN(C)[C@@H]2N3C)cc1` [YU-114, methoxyphenyl carbamoyleseroline], the IC50 was 0.0276 ± 0.0018 µM in [1], 0.224 ± 0.047 µM in assay [2] and 1.68 ± 0.38 µM in [3]. Moreover, in the assay on butyrylcholinesterase, the “increase of antibutyrylcholinesterase potency” value is given as “ten-fold”. The “specificity acetyl- versus butyryl-cholinesterase” value in assay [7] is on record as “approximately equally potent against both enzymes”. Further, the “reduction of antiacetylcholinesterase potency” value in the assay with acetylcholinesterase is “approximately 10 fold”.

With `CNC(=O)Oc1ccc2c(c1)C1(C)CC[N+](C)(C)C1N2C` (single isomer, unassigned) [YU-117, methosulfate of (-)physostigmine], the IC50 amounted to 0.0371 ± 0.0066 µM in [6] (setting [11]), 0.0294 ± 0.0052 µM in assay [4] (setting [12]), 0.0335 ± 0.0006 µM in [3] (setting [10]) and 0.0283 ± 0.0037 µM in assay [5] (setting [13]). Also, the “specificity acetyl- versus butyryl-cholinesterase” value in assay [7] is given as “more potent against acetylcholinesterase than against butyrylcholinesterase”. In addition, the “antiacetylcholinesterase potency in words” value in the assay with acetylcholinesterase was “as potent against acetylcholinesterase as physostigmine itself”.

With `CC(C)NP(=O)(NC(C)C)OP(=O)(NC(C)C)NC(C)C` [iso-OMPA, reference compound], the IC50 in assay [3] was > 1000 µM.

In turn, `C=CC[N+](C)(C)c1ccc(CCC(=O)CCc2ccc([N+](C)(C)CC=C)cc2)cc1` [BW284c51, reference compound] returned an IC50 in [3] of 0.0073 µM.

`CNC(=O)Oc1ccc2c(c1)[C@]1(C)CCN(CCc3ccccc3)[C@@H]1N2C` [YU-112, N--phenylethyl physostigmine]: the IC50 in assay [6] is 0.155 ± 0.028 µM; in [4], 0.213 ± 0.038 µM; in assay [5], 0.191 ± 0.056 µM.

With `C=CCN1CC[C@@]2(C)c3cc(OC(=O)NC)ccc3N(C)[C@@H]12` [YU-110, N--allyl physostigmine], the IC50 is 0.00265 ± 0.00201 µM in assay [1] and 0.0156 ± 0.0069 µM in assay [2]. Further, the “specificity acetyl- versus butyryl-cholinesterase” value in assay [7] is “equipotent versus both acetyl- and butyryl-cholinesterase”. The “antiacetylcholinesterase potency in words” value with acetylcholinesterase is on record as “as potent against acetylcholinesterase as physostigmine itself”.

Regarding `CN1CC[C@@]2(C)c3cc(OC(=O)Nc4ccccc4)ccc3N(C)[C@@H]12` [YU-79, eseroline phenylcarbamate], the IC50 is 1.3 µM in assay [1] (setting [8]); 0.036 ± 0.003 µM in assay [6] (setting [11]); 0.024 ± 0.006 µM in assay [4] (setting [12]); 2.5 µM in assay [2] (setting [9]); ~0.03 µM at acetylcholinesterase; 0.35 ± 0.09 µM in assay [3] (setting [10]). In addition, in assay [5] (setting [13]), the IC50 is 0.021 ± 0.001 µM. For the same molecule, in assay [7], the “specificity acetyl- versus butyryl-cholinesterase” value is recorded as “relatively specific for acetyl- rather than butyryl-cholinesterase”.

Turning to `CNC(=O)Oc1ccc2c(c1)[C@]1(C)CCN[C@@H]1N2C` [YU-96, N--norphysostigmine], in [7], the “specificity acetyl- versus butyryl-cholinesterase” value was “equipotent versus both acetyl- and butyryl-cholinesterase”. Further, the “antiacetylcholinesterase potency in words” value in the assay on acetylcholinesterase is listed as “as potent against acetylcholinesterase as physostigmine itself”.

With `CCCCNC(=O)Oc1ccc2c(c1)[C@]1(C)CCN(C)[C@@H]1N2C` [YU-120, butylcabamoyl eseroline], the IC50 in [1] was determined as 0.00413 ± 0.00125 µM; in assay [6], 0.0208 ± 0.0037 µM; in assay [4] it was 0.0176 ± 0.0091 µM; in assay [2], 0.016 ± 0.0044 µM; in [3], 0.152 ± 0.009 µM; in [5] it was 0.0203 ± 0.0068 µM. In addition, the “effect of shortening the side chain on potency against acetyl- or butyryl-cholinesterase” value in assay [7] is listed as “does not alter the potency of the compound against either acetyl- or butyryl-cholinesterase”.
